Where “and” joins values, the source holds several entries; their conditions need not be identical. Identical values can stand only once.

In general, IC50 refers to the concentration that inhibits the measured activity by half. The low end stands for inhibition by little substance, the high end for a need for much substance.

Assay [1] deals with DPB1*0401 (Homo sapiens, UniProt P04440+P20036). The experiment in a line: biochemical.
For assay [2], the target named is DRB3*0202 (Homo sapiens, UniProt P01903+P79483, A212P/D57E/F66Y/L67A/R103Q/R218S/R40L/S89Y/T80R/V86D/Y55F/Y59H). Briefly: biochemical.
The target in assay [3] is DRB3*0101 (Homo sapiens, UniProt P01903+P79483). The experiment in a line: biochemical.
For assay [4], the target named is DPA1*0103/DPB1*0201 (Homo sapiens, UniProt P04440+P20036, A65V/A84D/A85E/K98E). The experiment in a line: biochemical.
Assay [5] deals with DRB4*0101 (Homo sapiens, UniProt P01903+P13762, G164S). Briefly: biochemical.
Assay [6] has as its target DPA1*0201/DPB1*0501 (Homo sapiens, UniProt P04440+P20036, A65V/A84E/F191V/F64L/G113D/G114E/K142R/L158P/M116V/M62Q/P115A/Q81R/R125K/T114A/T199I/T259P/V234M). Briefly: biochemical.
The target of assay [7] is DPA1*0201/DPB1*0101 (Homo sapiens, UniProt P04440+P20036, F191V/F38Y/F64Y/G113D/G114E/K142R/L158P/L37V/M105V/M116V/M62Q/P115A/Q81R/R125K/R223Q/T114A/T199I/T259P). The experiment in a line: biochemical.
Assay [8] deals with PBMC from allergic donors. The experiment in a line: IL-5 ELISPOT with extract-stimulated short-term lines. As to conditions: positive donor/peptide response; each table line is one donor. The format is cell-based, human. The method, then: (§1) Spots were counted by computer-assisted image analysis (Zeiss, KS-ELISPOT reader, Munich, Germany).
(§2) Each assay was performed in triplicate. The level of statistical significance was determined with a Student's t-test using the mean of triplicate values of the response against relevant pools or individual peptides versus the response against the DMSO control.

For assay [9], the system named is PBMC from allergic donors. Briefly: IFN-γ ELISPOT with extract-stimulated short-term lines. The format is cell-based, human. As to conditions: positive donor/peptide response; each table line is one donor. The method, then:
as §1, §2

The test system of assay [10] is PBMC from allergic donors. The experiment in a line: Dual ELISPOT, total IL-5 and IFN-γ response (SFC). The format is cell-based, human. Conditions: for Response (SFC/10^6) Total: sum of IFNg and IL-5, each table line is one donor. The method, then:
as §1, §2

Assay [11] deals with HLA-DQ. The experiment in a line: HLA locus restriction, mAb inhibition of ELISPOT response. The format is cell-based, human. Conditions: count; ≥50% inhibition by anti-HLA-DQ mAb SVPL3; 0/0/0 = locus could not be determined. The method, then:
(§3) To determine the HLA locus restriction of identified epitopes, mAb inhibition assays were performed as described previously (11, 37). Preliminary determinations were made on control T cell clones of known specificity to determine optimal antibody doses leading to complete inhibition of the specific clones, and not associated with inhibition of clones known to be restricted by a different HLA allele or locus. This antibody concentration was then utilized in experiments where a dose response of antigenic peptide was tested in the presence or absence of the specific antibodies. Experimental determinations were performed utilizing ELISPOT assays specific for the particular lymphokine utilized to originally identify the particular epitope mapped.
(§4) For each antigenic region/donor combination short-term T cell lines were derived by extract stimulation of triplicate cultures of 2-3 million cells. IL-2 was added 5-8 days following stimulation. After 14 days of stimulation with the corresponding allergen extract (2-50 μg/ml), the HLA locus that restricted the response to the specific lymphokine was determined by measuring the capacity of mAbs specific for HLA-DR, DP or DQ to inhibit (block) the response. For this, PBMCs were incubated with 10 μg/ml of mAbs (Strategic Biosolutions, Windham, Me.) against HLA-DR (LB3.1), DP (B7/21) or DQ (SVPL3) 30 minutes prior to addition of 10 μg/ml of peptide. Cytokine production induced by positive peptides was then measured in ELISPOT assays as described above. The pan MHC class I Ab (W6/32) was used as a control. The decrease (inhibition) in cytokine production in the presence of an HLA locus specific mAb, relative to production in the absence of mAb, was determined.

Assay [12] deals with HLA-DR. Described as above. The format is cell-based, human. Conditions: count; ≥50% inhibition by anti-HLA-DR mAb LB3.1; 0/0/0 = locus could not be determined. The protocol: as §3, §4
The subject of assay [13] is HLA-DP. The assay is described as above. The format is cell-based, human. As to conditions: count; ≥50% inhibition by anti-HLA-DP mAb B7/21; 0/0/0 = locus could not be determined. The protocol: as §3, §4

DPA1*0201/DPB1*0501, sequence (P20036 29-260 M62Q/Q81R/T114A/K142R/L158P/F191V/T259P, other chains not shown): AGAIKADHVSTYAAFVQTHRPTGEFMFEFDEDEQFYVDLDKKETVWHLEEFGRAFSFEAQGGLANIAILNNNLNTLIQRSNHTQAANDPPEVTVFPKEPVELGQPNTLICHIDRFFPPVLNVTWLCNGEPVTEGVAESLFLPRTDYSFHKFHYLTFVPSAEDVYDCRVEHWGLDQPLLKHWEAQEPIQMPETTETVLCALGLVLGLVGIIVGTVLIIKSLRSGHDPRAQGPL
DRB3*0202, sequence (P01903 26-254 limits assumed): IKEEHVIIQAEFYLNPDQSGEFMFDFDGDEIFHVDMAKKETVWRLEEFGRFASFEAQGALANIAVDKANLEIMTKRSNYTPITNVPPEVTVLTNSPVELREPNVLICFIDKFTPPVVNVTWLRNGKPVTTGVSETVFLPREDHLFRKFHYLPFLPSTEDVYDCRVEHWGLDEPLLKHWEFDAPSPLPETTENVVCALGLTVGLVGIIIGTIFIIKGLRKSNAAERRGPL
DRB3*0202, sequence (P79483 30-266 R40L/Y55F/D57E/Y59H/F66Y/L67A/T80R/V86D/S89Y/R103Q/A212P/R218S limits assumed): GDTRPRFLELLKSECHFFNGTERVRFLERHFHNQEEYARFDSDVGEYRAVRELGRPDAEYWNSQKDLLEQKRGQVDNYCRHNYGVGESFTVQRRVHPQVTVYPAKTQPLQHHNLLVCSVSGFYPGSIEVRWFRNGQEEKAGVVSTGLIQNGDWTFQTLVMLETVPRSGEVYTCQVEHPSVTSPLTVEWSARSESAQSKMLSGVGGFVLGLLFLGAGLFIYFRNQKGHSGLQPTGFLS
DPA1*0201/DPB1*0101, sequence (P20036 29-260 M62Q/Q81R/T114A/K142R/L158P/F191V, other chains not shown): as the sequence (P20036 29-260 M62Q/Q81R/T114A/K142R/L158P/F191V/T259P, other chains not shown) above, with P231T counted along it

For `CC[C@H](C)[C@H](NC(=O)[C@H](Cc1ccc(O)cc1)NC(=O)[C@H](C)NC(=O)[C@H](CC(=O)O)NC(=O)[C@H](C)NC(=O)[C@@H](NC(=O)CNC(=O)[C@@H](N)CCC(N)=O)C(C)C)C(=O)N[C@H](C(=O)N[C@@H](CC(C)C)C(=O)N[C@H](C(=O)N[C@H](C(=O)N[C@@H](CC(C)C)C(=O)N1CCC[C@H]1C(=O)N[C@@H](CCCCN)C(=O)O)[C@@H](C)O)C(C)C)[C@@H](C)O` [3324.0011], in [1], the IC50 stood at 2010 nM.

With `CC[C@H](C)[C@H](NC(=O)[C@H](CC(=O)O)NC(=O)[C@H](CC(=O)O)NC(=O)[C@H](CO)NC(=O)[C@@H](NC(=O)[C@@H](N)CCCCN)C(C)C)C(=O)N[C@H](C(=O)N[C@@H](Cc1ccc(O)cc1)C(=O)N[C@H](C(=O)N[C@@H](C)C(=O)N[C@H](C(=O)N[C@@H](C)C(=O)N[C@H](C(=O)N[C@@H](CC(C)C)C(=O)N1CCC[C@H]1C(=O)O)[C@@H](C)O)[C@@H](C)O)C(C)C)[C@@H](C)O` [3324.0013], the half-inhibitory concentration (IC50) in assay [2] amounted to 5270 nM; in assay [1], 1610 nM; in assay [3], 6000 nM; in assay [4] it was 18000 nM.

For `CC[C@H](C)[C@H](N)C(=O)N[C@H](C(=O)N[C@@H](Cc1ccc(O)cc1)C(=O)N[C@H](C(=O)N[C@@H](C)C(=O)N[C@H](C(=O)N[C@@H](C)C(=O)N[C@H](C(=O)N[C@@H](CC(C)C)C(=O)N1CCC[C@H]1C(=O)N[C@@H](CC(N)=O)C(=O)N[C@@H](Cc1ccc(O)cc1)C(=O)N[C@@H](CS)C(=O)N[C@@H](CCCNC(=N)N)C(=O)N[C@@H](C)C(=O)O)[C@@H](C)O)[C@@H](C)O)C(C)C)[C@@H](C)O` [3324.0014], the IC50 in assay [1] was 2990 nM.

For the compound `CC[C@H](C)[C@H](N)C(=O)N[C@@H](C)C(=O)N[C@@H](CO)C(=O)N[C@@H](CC(C)C)C(=O)N[C@@H](Cc1ccccc1)C(=O)N[C@@H](C)C(=O)N[C@@H](C)C(=O)N[C@@H](C)C(=O)NCC(=O)N[C@@H](CC(C)C)C(=O)N[C@@H](C)C(=O)N[C@@H](C)C(=O)N[C@@H](C)C(=O)N[C@@H](C)C(=O)N1CCC[C@H]1C(=O)O` [3324.0015], the 50% inhibitory concentration (IC50) amounted to 28000 nM in assay [1] and 301 nM in [5].

As for `CC[C@H](C)[C@H](NC(=O)[C@H](Cc1ccc(O)cc1)NC(=O)[C@H](C)NC(=O)[C@H](CC(=O)O)NC(=O)[C@H](C)NC(=O)[C@@H](N)C(C)C)C(=O)N[C@H](C(=O)N[C@@H](CC(C)C)C(=O)N[C@H](C(=O)N[C@H](C(=O)N[C@@H](CC(C)C)C(=O)N1CCC[C@H]1C(=O)N[C@@H](CCCCN)C(=O)N[C@@H](CO)C(=O)N[C@@H](CO)C(=O)O)[C@@H](C)O)C(C)C)[C@@H](C)O` [3324.0016], the IC50 in assay [6] was 7.1 nM; in assay [1], 2500 nM; in [7], 40 nM.

Compound `CC(C)C[C@H](NC(=O)CNC(=O)[C@H](C)NC(=O)[C@H](C)NC(=O)[C@H](C)N)C(=O)N[C@@H](C)C(=O)N[C@@H](C)C(=O)N[C@@H](C)C(=O)N[C@@H](C)C(=O)N1CCC[C@H]1C(=O)N[C@@H](CC(C)C)C(=O)N[C@@H](CCC(=O)O)C(=O)N[C@@H](CO)C(=O)N[C@@H](CCCNC(=N)N)C(=O)N[C@@H](CCC(N)=O)C(=O)O` [3324.0017] gave an IC50 in assay [5] of 28 nM.

For the compound `CSCC[C@H](N)C(=O)N[C@@H](CCCNC(=N)N)C(=O)N[C@@H](CC(N)=O)C(=O)N[C@H](C(=O)N[C@@H](Cc1ccccc1)C(=O)N[C@@H](CC(=O)O)C(=O)N[C@@H](CC(=O)O)C(=O)N[C@H](C(=O)N[C@H](C(=O)N1CCC[C@H]1C(=O)N[C@@H](C)C(=O)N[C@@H](CC(=O)O)C(=O)N[C@@H](Cc1ccccc1)C(=O)N[C@@H](CCCCN)C(=O)N[C@H](C(=O)O)C(C)C)C(C)C)C(C)C)C(C)C` [3337.0030], the “Response (SFC/10^6) IL-5” value in assay [8] is 110 SFC/10^6 and 133 SFC/10^6 and 447 SFC/10^6. Moreover, in [9], the “Response (SFC/10^6) IFNg” value is 103 SFC/10^6 and 460 SFC/10^6. Also, the “Response (SFC/10^6) Total” value in [10] is 213 SFC/10^6 and 133 SFC/10^6 and 907 SFC/10^6.

As for `CSCC[C@H](NC(=O)[C@@H]1CCCN1C(=O)CNC(=O)[C@@H](NC(=O)[C@H](CC(C)C)NC(=O)[C@@H]1CCCN1C(=O)[C@H](CCCCN)NC(=O)[C@H](C)NC(=O)[C@H](CO)NC(=O)[C@H](CCCCN)NC(=O)[C@@H](NC(=O)[C@H](CCC(=O)O)NC(=O)[C@H](Cc1c[nH]c2ccccc12)NC(=O)[C@@H](N)CC(C)C)C(C)C)[C@@H](C)O)C(=O)N[C@@H](CC(N)=O)C(=O)O` [3337.0031], in assay [8], the “Response (SFC/10^6) IL-5” value was determined as 1010 SFC/10^6. Besides, the “Response (SFC/10^6) IFNg” value in assay [9] is 90 SFC/10^6 and 703 SFC/10^6. In addition, the “Response (SFC/10^6) Total” value in assay [10] is 90 SFC/10^6 and 1713 SFC/10^6.

On to “Bet v 1 (111-125): epitope region of allergen Bet v 1, Birch”, for which, in [11], the “Region restriction(s) DQ” value is 0. Moreover, the “Region restriction(s) DR” value in assay [12] came to 2. Also, in [13], the “Region restriction(s) DP” value is given as 0. In assay [10] (number of allergic donors recognizing the epitope region), the Donors responding is listed as 3. The “% responding” value in [10] (percent of tested allergic donors responding) came out at 30.0%. Besides, the “Total SFC” value in assay [10] (total response to the epitope region) is 1132 SFC.

Source of the values: patent US10918713B2, “Epitopes from allergen proteins and methods and uses for immune response modulation” (LA JOLLA INSTITUTE FOR ALLERGY AND IMMUNOLOGY, priority 2012, dated 2021).
